Source: ChEMBL document CHEMBL4152332, “Discovery and synthesis of novel magnolol derivatives with potent anticancer activity in non-small cell lung cancer” (Eur J Med Chem, 2018)

Key:
Format in all cases: functional, cell-based
[1] = tested on: HCC827; experiment: Antiproliferative activity against human HCC827 cells after 72 hrs by MTT assay; conditions: HCC827, 72 h
[2] = tested on: NCI-H1975; experiment: Antiproliferative activity against human NCI-H1975 cells after 72 hrs by MTT assay; conditions: NCI-H1975, 72 h
[3] = tested on: NCI-H460; experiment: Antiproliferative activity against human H460 cells after 72 hrs by MTT assay; conditions: NCI-H460, 72 h

SMILES	IC50 [1] [µM]	IC50 [2] [µM]	IC50 [3] [µM]
C=CCc1ccc(O)c(-c2cc(CC=C)cc(CN3CCN(C(C)=O)CC3)c2O)c1	> 20	> 20	> 20
C=CCc1cc(-c2cc(O)ccc2O)ccc1O [MAGNATRIOL B]	> 40	> 40	> 40
C=CCc1ccc(O)c(-c2cc(CC=C)cc(CN3CCC(NC(=O)OC(C)(C)C)CC3)c2O)c1	12.9	15.8	17.5
C=CCc1ccc(O)c(-c2ccc(O)c(/C=C/C)c2)c1	26.4	25.8	25.3
C=CCc1ccc(O)c(-c2cc(CC=C)cc(CN3CCN(C(=O)N(C)C)CC3)c2O)c1	> 20	> 20	> 20
